Experimental data from US6635641B2 (Agouron Pharmaceuticals, Inc., priority 2000, dated 2003).
pIC50, pKi: −log10 of the molar value. Where a name gives a salt, the structure may show the parent alone. Read-outs that look alike come from different tables or passages of the source. One block for each compound: values may come before it.

Legend:
[1] = target: T1, unphosphorylated VEGF-R2Δ50 (FLVK) (Homo sapiens, UniProt P35968, DEL940-989/E990V); assay: VEGF-R2 coupled spectrophotometric assay, unphosphorylated construct (FLVK); format: biochemical; details: for inhibition at 0.05 µM: @ 50 nM;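 on all read-outs here: Baculovirus-expressed cytosolic kinase domain, ADP formation linked via pyruvate kinase and lactate dehydrogenase to NADH oxidation, read as falling absorbance at 340 nm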
T1 construct: VEGF-R2Δ50 contains residues 806-939 and 990-1171; made in house; host or cells: baculovirus/insect cells
T1 sequence (P35968 with tags, fused parts or gaps DEL940-989/E990V limits assumed): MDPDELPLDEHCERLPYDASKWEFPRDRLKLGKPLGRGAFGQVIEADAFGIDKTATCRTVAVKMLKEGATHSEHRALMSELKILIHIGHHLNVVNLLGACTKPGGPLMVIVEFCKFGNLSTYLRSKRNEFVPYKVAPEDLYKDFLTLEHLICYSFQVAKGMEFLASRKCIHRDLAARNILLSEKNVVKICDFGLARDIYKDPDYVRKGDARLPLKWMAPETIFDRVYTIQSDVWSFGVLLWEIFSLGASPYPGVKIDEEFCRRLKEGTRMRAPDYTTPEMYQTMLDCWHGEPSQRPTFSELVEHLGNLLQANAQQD

[2] = test system: human umbilical vein endothelial cells (HUVEC); assay: HUVEC proliferation assay (VEGF-stimulated, MTT); format: cell-based
Experimental: This assay determines the ability of a test compound to inhibit the growth factor-stimulated proliferation of human umbilical vein endothelial cells (“HUVEC”). HUVEC cells (passage 3-4, Clonetics, Corp.) were thawed into EGM2 culture medium (Clonetics Corp) in T75 flasks. Fresh EGM2 medium was added to the flasks 24 hours later. Four or five days later, cells were exposed to another culture medium (F12K medium supplemented with 10% fetal bovine serum (FBS), 60 μg/ml endothelial cell growth supplement (ECGS), and 0.1 mg/ml heparin). Exponentially-growing HUVEC cells were used in experiments thereafter. Ten to twelve thousand HUVEC cells were plated in 96-well dishes in 100 μl of rich, culture medium (described above). The cells were allowed to attach for 24 hours in this medium. The medium was then removed by aspiration and 105 μl of starvation media (F12K+1% FBS) was added to each well. After 24 hours, 15 μl of test agent dissolved in 1% DMSO in starvation medium or this vehicle alone was added into each treatment well; the final DMSO concentration was 0.1%. One hour later, 30 μl of VEGF (30 ng/ml) in starvation media was added to all wells except those containing untreated controls; the final VEGF concentration was 6 ng/ml. Cellular proliferation was quantified 72 hours later by MTT dye reduction, at which time cells were exposed for 4 hours MTT (Promega Corp.). Dye reduction was stopped by addition of a stop solution (Promega Corp.) and absorbance at 595 λ was determined on a 96-well spectrophotometer plate reader.

[3] = test system: lung cancer cells (line MV522); assay: Cancer cell proliferation (MV522) assay (MTT); format: cell-based
Experimental: The protocol for assessing cellular proliferation in cancer cells is similar to that used for assessments in HUVEC cells. Two thousand lung cancer cells (line MV522, acquired from American Tissue Cultural Collection) were seeded in growth media (RPMI1640 medium supplemented with 2 mM glutamine and 10% FBS). Cells are allowed to attach for 1 day prior to addition of test agents and/or vehicles. Cells are treated simultaneously with the same test agents used in the HUVEC assay. Cellular proliferation is quantified by MTT dye reduction assay 72 hours after exposure to test agents. The total length of the assay is 4 days vs. 5 for HUVEC cells because MV522 cells are not exposed to starvation medium.

[4] = target: T2, phosphorylated VEGF-R2Δ50 (FLVK-P) (Homo sapiens, UniProt P35968, DEL940-989/E990V); assay: VEGF-R2 coupled spectrophotometric assay, phosphorylated construct (FLVK-P); format: biochemical
T2 construct: VEGF-R2Δ50 contains residues 806-939 and 990-1171; made in house; host or cells: baculovirus/insect cells
T2 sequence (P35968 with tags, fused parts or gaps DEL940-989/E990V limits assumed): as above
From the text: A construct (VEGF-R2Δ50) of the cytosolic domain of human vascular endothelial growth factor receptor 2 (VEGF-R2) lacking the 50 central residues of the 68 residues of the kinase insert domain was expressed in a baculovirus/insect cell system. Of the 1356 residues of full-length VEGF-R2, VEGF-R2Δ50 contains residues 806-939 and 990-1171, and also one point mutation (E990V) within the kinase insert domain relative to wild-type VEGF-R2. See commonly assigned, co-pending U.S. patent application Ser. No. 09/390,326, filed Sep. 7, 1999, incorporated by reference herein, for discussion of VEGF constructs and expression systems. Autophosphorylation of the purified construct was performed by incubation of the enzyme at a concentration of 4 μM in the presence of 3 mM ATP and 40 mM MgCl2 in 100 mM Hepes, pH 7.5, containing 5% glycerol and 5 mM DTT, at 4° C. for 2 h. […] See Parast et al., Biochemistry, 37, 16788-16801 (1998).
The production of ADP from ATP that accompanies phosphoryl transfer was coupled to oxidation of NADH using phosphoenolpyruvate (PEP) and a system having pyruvate kinase (PK) and lactic dehydrogenase (LDH). The oxidation of NADH was monitored by following the decrease of absorbance at 340 nm (e340=6.22 cm^−1 mM^−1) using a Beckman DU 650 spectrophotometer. Assay conditions for phosphorylated VEGF-R2Δ50 (indicated as FLVK-P in the tables below) were the following: 1 mM PEP; 250 μM NADH; 50 units of LDH/mL; 20 units of PK/mL; 5 mM DTT; 5.1 mM poly(E4Y1); 1 mM ATP; and 25 mM MgCl2 in 200 mM Hepes, pH 7.5. Assay conditions for unphosphorylated VEGF-R2Δ50 (indicated as FLVK in the tables) were the following: 1 mM PEP; 250 μM NADH; 50 units of LDH/mL; 20 units of PK/mL; 5 mM DTT; 20 mM poly(E4Y1); 3 mM ATP; and 60 mM MgCl2 and 2 mM MnCl2 in 200 mM Hepes, pH 7.5. Assays were initiated with 5 to 40 nM of enzyme. Ki values were determined by measuring enzyme activity in the presence of varying concentrations of test compounds. The data were analyzed using Enzyme Kinetic and Kaleidagraph software.

[5] = unphosphorylated VEGF-R2 construct
[6] = Homo sapiens, HUVEC proliferation with albumin, read-out: Huvec + Albumin IC50
[7] = Homo sapiens, HUVEC, read-out: HUVEC IC50
[8] = read-out: FLVK percent inhibition

Compound: N#Cc1ccc(NC(=O)c2cccc(CSc3ncnc4[nH]ncc34)c2)cc1C(F)(F)F [Example B-12, N-[4-cyano-3-(trifluoromethyl)phenyl]-3-[(1H-pyrazolo[3,4-d]pyrimidin-4-yl-sulfanyl)methyl]benzamide]
pIC50 ([3]; MV522): < 5.00
pKi [4]: 7.55
pIC50 [2, 7]: 6.28

Compound: CC(C)c1cccc(NC(=O)c2cccc(CSc3ncnc4[nH]ncc34)c2)c1 [Example B-15, 3-[(1H-Pyrazolo[3,4-d]pyrimidin-4-yl)sulfanylmethyl]-N(3-isopropylphenyl)-benzamide]
pIC50 ([3]; MV522): < 5.00
pKi [4]: 7.80
pIC50 [2, 7]: 6.92

Compound: O=C(Nc1cc(C(F)(F)F)cc(C(F)(F)F)c1)c1cccc(CSc2ncnc3[nH]ncc23)c1 [Example B-17, 3-[(1H-Pyrazolo[3,4-d]pyrimidin-4-yl)sulfanylmethyl]-N(3,5-bis-trifluoromethylphenyl)-benzamide]
pIC50 ([3]; MV522): < 5.00
pKi [4]: 8.16
pIC50 [2, 7]: < 6.15

Compound: CC(C)(C)c1cccc(NC(=O)c2cccc(CSc3ncnc4[nH]ncc34)c2)c1 [Example B-18, 3-[(1H-Pyrazolo[3,4-d]pyrimidin-4-yl)sulfanylmethyl]-N(3-t-butylpheny)-benzamide]
pIC50 [3]: < 5.00
pKi [4]: 8.23
pIC50 ([2]; read-out: HUVEC IC50): 6.89

Compound: Cc1cc(NC(=O)c2cccc(SCc3cnccn3)c2)ccc1C(C)C [Example D-1, N-(4-Isopropyl-3-methylphenyl)-3-[(pyrazin-2-yl)methylsulfanyl]benzamide]
pIC50 ([3]; MV522): < 5.00
pKi [4]: 7.55
pIC50 [2, 7]: 6.28

Compound: COc1cc(/C=C/c2cc(CSc3cccc(C(=O)Nc4ccc5nc(C)ccc5c4)c3)[nH]n2)ccc1O [Example F-1, 3-[{5-((E)-2-(4-Hydroxy-3-methoxyphenyl)ethenyl)-2H-pyrazol-3-yl}methylsulfanyl]-N-(2-methylquinolin-6-yl)benzamide]
pIC50 ([3]; MV522): < 5.00
pKi [4]: 8.63
pIC50 [2, 7]: 6.15

Compound: Cc1ccc2cc(NC(=O)c3cccc(OCc4cccnc4)c3)ccc2n1 [Example K-9, N-(2-Methyl-quinolin-6-yl)-3-(pyridin-3-yl)methoxy-benzamide]
pKi [1]: 8.00
pKi [4]: 6.96

Compound: O=C(Nc1ccc(N2CCNCC2)c(C(F)(F)F)c1)c1ccc(F)c(OCc2cnc3ccccc3c2)c1 [Example R-17, 4-Fluoro-N-(4-piperazin-1-yl-3-trifluoromethyl-phenyl)-3-(quinolin-3-ylmethoxy)-benzamide]
pKi [1]: 8.13
pIC50 [2, 7]: 7.49

Compound: O=C(Nc1ccc(N2CCNCC2)c(C(F)(F)F)c1)c1ccc(F)c(OCc2cncc(Br)c2)c1 [Example R-25, 3-(5-Bromo-pyridin-3-ylmethoxy)-4-fluoro-N-(4-piperazin-1-yl-3-trifluoromethyl-phenyl)-benzamide]
pKi [1]: 8.18
pIC50 ([2]; Homo sapiens, HUVEC, with albumin, read-out: Huvec + Albumin IC50): 6.81

Compound: O=C(Nc1cccc(CSc2ncnc3[nH]ncc23)c1)c1ccc(Oc2ccccc2)cc1 [Example V-6, N-{3-[(1H-pyrazolo[3,4-d]-pyrimidin-4-yl)sulfanylmethyl]phenyl}-(4-phenoxy)benzamide]
inhibition at 0.05 µM [1, 8]: 12%

Continued, in another order:

pKi [1, 5]: 7.60
Compound: Nc1ccc(CCc2cccc(C(=O)Nc3ccc(N4CCNCC4)c(C(F)(F)F)c3)c2)cn1 [AA-2, 3-[2-(6-Amino-pyridin-3-yl)-ethyl]-N-(4-piperazin-1-yl-3-trifluoromethyl-phenyl)-benzamide dihydrochloride]
pIC50 [2, 6]: 7.10

pKi [1, 5]: 7.97
Compound: O=C(Nc1ccc(N2CCNCC2)c(C(F)(F)F)c1)c1cccc(CCc2cnc3[nH]cnc3c2)c1 [BB-1, 3-[2-(3H-Imidazo[4,5-b]pyridin-6-yl)-ethyl]-N-(4-piperazin-1-yl-3-trifluoromethyl-phenyl)-benzamide dihydrochloride]
pIC50 [2, 6]: 6.03

pKi [1, 5]: 8.25
Compound: O=C(Nc1ccc(N2CCNCC2)c(C(F)(F)F)c1)c1ccc(F)c(CCc2cnc3[nH]cnc3c2)c1 [DD-1, 4-Fluoro-3-[2-(3H-imidazo[4,5-b]pyridin-6-yl)-ethyl]-N-(4-piperazin-1-yl-3-trifluoromethyl-phenyl)-benzamide dihydrochloride]
pIC50 [2, 6]: 6.15

pKi [1]: 9.12
pKi [4]: 8.06
Compound: Cc1cc(NC(=O)c2cccc(CCc3cncc4ccccc34)c2)ccc1C(C)C [Example S-3, N-(4-Isopropyl-3-methyl-phenyl)-3-(2-isoquinolin-4-yl-ethyl)-benzamide]
pIC50 [2, 7]: 6.74

inhibition at 0.05 µM [1, 8]: 19%
Compound: Cc1cc(NC(=O)c2cc(CCc3cncc4ccccc34)c(F)cc2Cl)ccc1C(C)C [Example S-7, 2-Chloro-4-fluoro-N-(4-isopropyl-3-methyl-phenyl)-5-(2-isoquinolin-4-yl-ethyl)-benzamide]
pIC50 [2, 7]: < 6.52

pKi [1, 5]: 8.59
Compound: O=C(Nc1cccc(CSc2ncnc3[nH]ncc23)c1)Nc1cc(C(F)(F)F)cc(C(F)(F)F)c1 [Example V-7, N-{3-[(1H-pyrazolo[3,4-d]pyrimidin-4-ylsulfanyl)methyl]phenyl}-N′-[3,5-bis-(trifluoromethyl)phenyl]urea]

inhibition at 0.05 µM [1, 8]: 0%
Compound: O=C(Nc1cccnc1)Nc1cccc(CSc2ncnc3[nH]ncc23)c1 [Example V-8, N-{3-[(1H-pyrazolo[3,4-d]pyrimidin-4-ylsulfanyl)methyl]phenyl}-N′-(pyridin-3-yl)urea]

pKi [1, 5]: 7.66
Compound: CC(C)(C)c1cc(C(=O)Nc2cccc(CSc3ncnc4[nH]ncc34)c2)cc(C(C)(C)C)c1 [Example V-9, N-{3-[(1H-pyrazolo[3,4-d]-pyrimidin-4-yl)sulfanylmethyl]phenyl}-(3,5-di-t-butyl)benzamide]

inhibition at 50 µM ([1]; @ 50 μM, read-out: FLVK percent inhibition): 16%
Compound: O=C(Nc1cccc(CSc2ncnc3[nH]ncc23)c1)c1ccc(O)c(Br)c1 [Example V-10, 3-Bromo-4-hydroxy-N-{3-[(1H-pyrazolo[3,4-d]-pyrimidin-4-yl)sulfanylmethyl]phenyl}-benzamide]

inhibition at 0.05 µM [1, 8]: 18%
Compound: O=C(Nc1cccc(CSc2ncnc3[nH]ncc23)c1)c1ccc2ncccc2c1 [Example V-11, N-{3-[(1H-pyrazolo[3,4-d]-pyrimidin-4-yl)sulfanylmethyl]phenyl}-quinoline-6-carboxamide]

inhibition at 0.05 µM [1, 8]: 18%
Compound: O=C(Nc1cccc(CSc2ncnc3[nH]ncc23)c1)c1cc2cc(F)ccc2[nH]1 [Example V-12, 5-Fluoro-N-{3-[(1H-pyrazolo[3,4-d]-pyrimidin-4-yl)sulfanylmethyl]-phenyl}-indole-2-carboxamide]

inhibition at 0.05 µM [1, 8]: 17%
Compound: O=C(Nc1cccc(CSc2ncnc3[nH]ncc23)c1)c1ccc2cc[nH]c2c1 [Example V-13, N-{3-[(1H-pyrazolo[3,4-d]-pyrimidin-4-yl)sulfanylmethyl]phenyl}-indole-6-carboxamide]
